The values that follow come from patent publication US20250120988A1, “SMALL MOLECULE COMPOUND FOR TREATING ISCHEMIC STROKE, ITS PREPARATION METHOD, AND APPLICATION” (SHANGHAI SIXTH PEOPLE'S HOSPITAL, priority 2023, published 2025).

Each structure is given as a SMILES string.

Assay [1] concerns primary cortical neurons. As to the kind of experiment: LDH release from cultured neurons after OGD. To be noted: 10 μM, OGD 1 hour, pH 7.0. The format is cell-based, mice. How it is done: (§1) Figure a illustrates cortical neurons staining from wild-type (ASIC1a+/+) and gene-deficient (ASIC1a−/−) mice primary cultures in the calcein-PI staining experiment. Blue green represents viable cells, and red represents dead cell nuclei. 10 μM CGS19755 and 10 μM LK-2 were added respectively in the cell culture medium under pH 7.0 conditions with OGD to be treated for 1 hour. Figure c illustrates, after being treated in the same experimental groups as Figure a, the analysis of each group of LDH of relative release levels. Figure d illustrates PI staining of ASIC1a-transfected CHO cells after 1 hour of treatment with pH 7.0 and 500 μM glutamate (Glu). Green represents green fluorescent protein (GFP), indicating ASIC1a-expressing CHO cells (GFP+), and red represents dead cell nuclei. The concentration of LK-2 was 10 μM. GFP-indicates ASIC1a-untransfected cells. […]
The LDH assay kit (Biyuntian) was used to measure the release of LDH from cultured neurons after 1 hour of oxygen-glucose deprivation (OGD). […] The absorbance of the target was measured at 490 nm wavelength using a spectrophotometer (Thermo Scientific), while the background absorbance was measured at 620 nm wavelength. […]

Assay [2] relates to primary cortical neurons. As to the kind of experiment: Calcein-PI cell death staining of primary neurons under oxygen-glucose deprivation (OGD). The format is cell-based, mice. To be noted: 10 μM; primary cultured neurons; OGD 1 hour, pH 7.0. Here is the method: as §1, with “(Glu).” for “(Glu). Green represents green fluorescent protein (GFP), indicating ASIC1a-expressing CHO cells (GFP+), and red represents dead cell nuclei. The concentration of LK-2 was 10 μM. GFP-indicates ASIC1a-untransfected cells.”
Taking into consideration that in addition to ASIC1a, neurons also express multiple membrane proteins that can be activated and lead to cell death during OGD, in order to more accurately verify that cell death is caused by glutamate activation of ASIC1a and that LK-2 indeed competitively antagonizes the glutamate so as to reduce cell death, we conducted the following experiment: CHO cells transfected with ASIC1a-GFP were divided into a control group (500 μM glutamate) and a drug intervention group (500 μM glutamate+10 μM LK-2). […] Live and dead cell nuclei were determined by observing under a 40× objective using excitation wavelengths of 488 nm and 546 nm. The number of stained cell nuclei was counted using Image-J software.

The subject of another assay is MCAO model. In words: MCAO cerebral ischemia model, rotarod motor function test. The assay is classed as in vivo, mice. The conditions noted are these: 30 mg/kg, seven days after brain injury. Here is the method: Figure a illustrates the experimental process, where drug intervention (using a concentration of 30 mg/kg of LK-2) was conducted 30 minutes after modeling, and the first brain function test (rotarod test) was performed 24 hours after modeling. The second brain function test was conducted 7 days later, with 5 training tests followed by 1 formal test in each rotarod test. Figure b illustrates the time taken for mice to fall off the rotarod during the 5 training tests, where longer time indicates better motor function. […] Figure c illustrates the analysis results of motor ability in the formal test conducted 24 hours and 7 days after modeling for each group of mice. • 3.4 The animal model of cerebral ischemic stroke, known as the middle cerebral artery occlusion (MCAO) model, is a classic model used to simulate individual patients with ischemic stroke, and evaluate the size of cerebral infarction and motor function (evaluate through the rotarod test, including assessment of motor learning and coordination, the experimental design process is illustrated in FIG. 8a) in model animals after drug intervention. The specific steps are as follows: a transient focal ischemic model was formed by occluding the middle cerebral artery for 30 minutes in wild-type or ASIC1a gene knockout mice. […] In this test, mice were placed on the rotating rod and the time to fall was recorded. […]
Background: Falling from the rotarod earlier than controls is read as motor impairment.

Regarding `O=C(O)C1CN(C(c2ccccc2)P(=O)(O)O)CCN1` (stereo not shown) [LK-2], the “reduction of lactate dehydrogenase release” value in the assay on primary cortical neurons [1] was 50%. In addition, the “reduction of cell death rate” value in the assay on primary cortical neurons [2] is given as 87%. In the assay with MCAO model (rotarod training tests), the motor learning ability entry is listed as “significant improvement”. Further, the “overall improvement in motor function” value in the assay on MCAO model (rotarod) is on record as 51.6%.
